Test results reported in publication PMC6458995, “MAP4K4 Inhibition Promotes Survival of Human Stem Cell-Derived Cardiomyocytes and Reduces Infarct Size In Vivo” (Cell Stem Cell, 2019).
pIC50: −log10 of the molar value.

Key:
[1] = test system: vCor.4U cardiomyocytes; assay: CellTiter-Glo viability after oxidative stress (H2O2 or menadione); assay type: cell-based, human; conditions: vCor.4U; 400 μM H2O2 1 h after compound; 10 μM
Protocol: vCor.4U cardiomyocytes were cultured, except where noted, on white (viability) or black (FLIPR) clear-bottom 384-well plates, treated for 1 hr with […] fibronectin (Sigma-Aldrich). To minimize batch to batch variation, thawed cells first were transferred from cryo-vials into sterile 250 mL flasks containing pre-warmed vCor.4U maintenance medium, for 3-5 d. The cells were then plated at 1000 well^-1 for viability assays or 5000 cells well^-1 for FLIPR experiments, all in 40 μl well^-1 of the maintenance medium. Cells were cultured in Axiogenesis complete medium followed by incomplete medium, were subjected to oxidative stress ± test compounds on day 3, and were assayed on day 4 (Figures 4D and 4E). Alternatively, complete medium was replaced on day 2 of culture with 40 μl of DMEM high Glucose (no FCS or pyruvate), followed by removal and replacement of 20 μl every 2 d for 10 d (Figures 4A–4C).
H2O2, menadione (Sigma-Aldrich), doxorubicin (Calbiochem), and C2-ceramide (N-acetyl-D-sphingosine) were used at the indicated concentrations. MAP4K4 inhibitors were serially diluted in DMSO, transferred to an intermediate plate using assay medium as a diluting agent, and added at a final concentration of 0.1% DMSO. MAP4K4 inhibitors were added to cultured cardiomyocytes 1 hr before the cell death inducers, except where noted, and remained present for the duration of the experiment.
For cell-based dose-response experiments, MAP4K4 inhibitors were prepared in 96-well polypropylene plates as serial dilutions in DMSO of 10 mM stock solutions. To a sterile 96-well intermediate plate, 1 μl of each well was added to 99 μl of medium, the samples were mixed, and 5 μl well^-1 from the intermediate plate were transferred to the cultured cells (final concentration, 0.1% DMSO; final top concentration of inhibitor, 10 μM). Assay plates were gently centrifuged then incubated for 1 hr at 37°C. The death triggers menadione, H2O2 and doxorubicin were prepared fresh on the day of treatment at 10x the final concentrations and 5 μl well^-1 were added as appropriate. Assay plates were gently centrifuged and then incubated at 37°C for the duration of treatment.
Assay plates were removed from the incubator, allowed to reach room temperature, inoculated with 20 μl well^-1 CTG reagent (Promega), and gently agitated for 30 min. Prior to adding CTG, 2 μl well^-1 of the culture medium was removed and placed into a white 384-well low volume plate for measurement of cardiac troponin release by AlphaLISA (below). Luminescence due to ATP, proportional to cell number, was captured on a PHERAstar Plus microplate reader (BMG Labtech). Normalized values were plotted against the log concentration of death signal or inhibitor, and a 4-parameter fit was used to identify IC50 and EC50, respectively.

[2] = molecular target: T1, recombinant human MAP4K4 (Homo sapiens, UniProt O95819); assay: In vitro MAP4K4 kinase activity assay (HTRF Transcreener ADP); assay type: biochemical; conditions: MAP4K4; HTRF Transcreener ADP assay; read-out: pIC50 (converted)
T1 construct: Human MAP4K4 kinase domain (aa 1-328); purchased Invitrogen PV3687
Protocol: MAP4K4 kinase activity was monitored using the CisBio HTRF Transcreener ADP assay, a competitive immunoassay with a reproducible Z’ > 0.6. In the detection step, endogenous ADP and d2-labeled ADP compete for binding an anti-ADP monoclonal antibody labeled with Eu^3+ cryptate. […] Assays were run in Greiner low volume plates with a final reaction volume of 10 μl. Percent inhibition was calculated from 100% activity of MAP4K4 (DMSO only) and 0% activity (no enzyme added). Data were either reported as % inhibition at a single dose or as pIC50 values derived from dose response curves (pIC50 = -log[IC50]).

[3] = test system: vCor.4U cells; assay: Mitochondrial function (Seahorse XFe24, OCR and ECAR); assay type: cell-based, human; conditions: menadione 15 μM; 2 h
Protocol: Mitochondrial function in hiPSC-CMs was determined using a Seahorse XFe24 Analyzer. vCor.4U cells (60,000 well^-1) were transferred to 0.1% gelatin-coated XF24 plates and maintained for 5 d, as described above. On day 6, DMX-5804 was added 45 min prior to challenge with menadione for 2 h. The medium was replaced 1 hr before the assay, using bicarbonate-free Seahorse assay medium (8.3 g L^-1 DMEM Base (Sigma-Aldrich), 10 mM glucose, 2 mM L-alanyl-L-glutamine dipeptide (Glutamax-1, GIBCO), 1 mM sodium pyruvate (GIBCO), pH 7.4). Cells were maintained at 37°C without supplemental CO2 starting 1 hr before the assay (IL10 incubator, VWR). For each state measured, three assay cycles were performed (4 min mixing, 2 min wait, and 2 min measurement periods, with readings every 15 s). The basal oxygen consumption rate (OCR) and extracellular acidification rate (ECAR) were determined, followed by sequential injection of 1 μM oligomycin A (Abcam) to inhibit ATP synthase, 0.5 μM […] (FCCP; Abcam) to uncouple oxidative phosphorylation, and 1 μM antimycin A/rotenone (Sigma, Abcam) to inhibit mitochondrial complex III and I. For each condition, 12 wells were tested, comprising 4 independent experiments.

[4] = test system: vCor.4U hiPSC-CMs; assay: Calcium transients (FLIPR Tetra, EarlyTox Cardiotoxicity dye); assay type: cell-based, human; conditions: Homo sapiens; calcium cycling; vCor.4U; 24 h; read-out: half-maximal loss of peak area and peak height
Protocol: Calcium transients in hiPSC-CMs were assessed using FLIPR Tetra instrumentation and Early Tox Cardiotoxicity kits (Molecular Devices). vCor.4U cells were subjected to graded concentrations of menadione and the MAP4K4 inhibitors as described for the viability assays. Compound concentrations and time course are denoted in the figure and figure legend. Vehicle controls were used throughout. Cells were incubated for 2-3 hr at 37°C in 5% CO2, using 3 μL well^-1 of EarlyTox Cardiotoxicity Kit concentrate as the fluorescent calcium indicator dye. Plates were then removed from the incubator and allowed to reach room temperature. Intracellular calcium oscillations were monitored using a FLIPR Tetra system with excitation LED bank 470-495 nm and emission filter set 515-575 nm (Molecular Devices). Fluorescence intensity signals were acquired for 600 reads at 1.2 ms intervals. Beat frequency, median peak height, median peak width and total peak area were calculated and compared with the baseline control and with menadione alone. Protection of calcium cycling by DMX-4804 was confirmed in 3 independent experiments with overlapping conditions, and results are shown for a full dose-response study, analyzing 4 wells for each point.

T1 sequence (O95819 1-328): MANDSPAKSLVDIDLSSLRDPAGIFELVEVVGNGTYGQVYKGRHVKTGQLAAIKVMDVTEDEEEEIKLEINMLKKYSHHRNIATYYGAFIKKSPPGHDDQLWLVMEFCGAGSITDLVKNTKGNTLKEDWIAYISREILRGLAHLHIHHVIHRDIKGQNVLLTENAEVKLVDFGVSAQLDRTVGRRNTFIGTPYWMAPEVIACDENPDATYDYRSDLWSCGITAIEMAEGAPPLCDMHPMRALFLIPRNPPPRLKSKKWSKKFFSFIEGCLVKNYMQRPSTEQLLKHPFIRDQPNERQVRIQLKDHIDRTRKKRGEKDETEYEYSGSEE

## COCCc1ccc(OCC(O)CNC(C)C)cc1 (centres unmarked) [metoprolol]
[1]
  human cardiomyocyte survival (rescue of viability): promoted

## O=c1[nH]cnc2c1ccn2-c1ccccc1 [DMX-4815]
[2]
  IC50: 7.94 µM

## O=c1[nH]cnc2[nH]cc(-c3ccccc3)c12 [DMX-4850]
[2]
  IC50: 0.794 µM

## CC1=CC(=O)c2ccccc2C1=O [menadione]
[3]
  Maximum oxidative capacity, of control levels: 15%
[4]
  pIC50: 4.80
